Activity calls are given as the source filed them. The calls are words filed in the database; no cut-off is given here.
Tests used:
Mus musculus [1] = assay: Inhibition of nicotine-induced response in ip dosed CF-1 mouse; type: functional; conditions: CF-1, ip
Mus musculus [2] = assay: Anticonvulsant activity in ip dosed CF-1 mouse assessed as reduction of strychnine-induced response; type: functional; conditions: CF-1, ip
Mus musculus [3] = assay: Anticonvulsant activity in ip dosed CF-1 mouse assessed as reduction of pentylenetetrazole-induced response; type: functional; conditions: CF-1, ip
Mus musculus [4] = assay: Reduction in hypoxic stress in ip dosed CF-1 mouse; type: functional; conditions: CF-1, ip
Mus musculus [5] = assay: Inhibition of nicotine-induced response in CF-1 mouse at 100 mg/kg, ip; type: functional, organism-based; set-up: dose 100 mg/kg
Mus musculus [6] = assay: Anticonvulsant activity in CF-1 mouse assessed as reduction of strychnine-induced response at 100 mg/kg, ip; type: functional, organism-based; set-up: dose 100 mg/kg
Mus musculus [7] = assay: Anticonvulsant activity in CF-1 mouse assessed as reduction of pentylenetetrazole-induced response at 100 mg/kg, ip; type: functional, organism-based; set-up: dose 100 mg/kg
Mus musculus [8] = assay: Reduction in hypoxic stress in CF-1 mouse at 100 mg/kg, ip; type: functional, organism-based; set-up: dose 100 mg/kg

| SMILES | ED50 (Mus musculus [1]) | ED50 (Mus musculus [2]) | ED50 (Mus musculus [3]) | ED50 (Mus musculus [4]) | inhibition (Mus musculus [5]) | Activity (Mus musculus [6]) | Activity (Mus musculus [7]) | Activity (Mus musculus [8]) |
| --- | --- | --- | --- | --- | --- | --- | --- | --- |
| Cc1nnc2n1-c1ccc(Cl)cc1N(c1ccccc1)C(=O)C2 | 5 mg/kg | 28 mg/kg | 7 mg/kg | 60 mg/kg | – | – | – | – |
| O=C1Cc2nnc(CCl)n2-c2ccc(Cl)cc2N1c1ccccc1 | – | – | – | – | inactive | inactive | inactive | inactive |
| CNC1=Nc2ccc(Cl)cc2C(c2ccccc2)=[N+]([O-])C1 [CHLORDIAZEPOXIDE] | 1 mg/kg | 13 mg/kg | 2.6 mg/kg | 10.5 mg/kg | – | – | – | – |
| CN(C)Cc1nnc2n1-c1ccc(Cl)cc1N(c1ccccc1)C(=O)C2 | 89 mg/kg | – | 25 mg/kg | – | – | – | – | – |
